Measurements reported in publication PMC10778976, “BAY-3827 and SBI-0206965: Potent AMPK Inhibitors That Paradoxically Increase Thr172 Phosphorylation” (International Journal of Molecular Sciences, 2023).
Read-outs that look alike come from different tables or passages of the source.

Legend:
[1] = target: T1, “naïve” (unphosphorylated), bacterially expressed human α1β1γ1 complex (Homo sapiens, UniProt Q13131+Q9Y478); assay: Allosteric activation of naïve (unphosphorylated) α1β1γ1 complex by MK-8722 with and without BAY-3827; format: biochemical; details: BAY-3827 30 nM
T1 construct: (His)6
T1 sequence (Q13131 whole entry): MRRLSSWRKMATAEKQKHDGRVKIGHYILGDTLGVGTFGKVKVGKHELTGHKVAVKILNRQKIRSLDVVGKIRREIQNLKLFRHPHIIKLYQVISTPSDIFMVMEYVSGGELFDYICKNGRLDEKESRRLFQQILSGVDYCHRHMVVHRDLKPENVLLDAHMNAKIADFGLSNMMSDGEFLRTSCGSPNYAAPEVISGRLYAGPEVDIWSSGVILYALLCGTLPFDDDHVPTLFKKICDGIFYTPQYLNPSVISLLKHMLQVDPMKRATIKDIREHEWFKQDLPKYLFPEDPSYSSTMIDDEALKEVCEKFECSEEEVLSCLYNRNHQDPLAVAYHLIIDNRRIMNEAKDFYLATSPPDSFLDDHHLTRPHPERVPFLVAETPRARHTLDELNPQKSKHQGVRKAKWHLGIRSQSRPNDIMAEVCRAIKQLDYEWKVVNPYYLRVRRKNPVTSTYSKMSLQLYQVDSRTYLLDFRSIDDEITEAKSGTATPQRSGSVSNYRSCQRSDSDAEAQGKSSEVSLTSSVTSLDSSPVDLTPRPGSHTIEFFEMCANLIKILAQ
T1 sequence (Q9Y478 2-270): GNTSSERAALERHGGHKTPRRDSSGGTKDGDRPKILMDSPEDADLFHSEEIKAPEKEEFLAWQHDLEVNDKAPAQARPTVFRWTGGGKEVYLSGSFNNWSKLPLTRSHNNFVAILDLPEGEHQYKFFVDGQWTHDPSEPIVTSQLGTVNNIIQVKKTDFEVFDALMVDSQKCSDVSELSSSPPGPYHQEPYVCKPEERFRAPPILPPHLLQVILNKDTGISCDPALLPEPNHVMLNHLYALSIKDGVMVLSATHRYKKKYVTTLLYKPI
T1 sequence (P54619 whole entry partner): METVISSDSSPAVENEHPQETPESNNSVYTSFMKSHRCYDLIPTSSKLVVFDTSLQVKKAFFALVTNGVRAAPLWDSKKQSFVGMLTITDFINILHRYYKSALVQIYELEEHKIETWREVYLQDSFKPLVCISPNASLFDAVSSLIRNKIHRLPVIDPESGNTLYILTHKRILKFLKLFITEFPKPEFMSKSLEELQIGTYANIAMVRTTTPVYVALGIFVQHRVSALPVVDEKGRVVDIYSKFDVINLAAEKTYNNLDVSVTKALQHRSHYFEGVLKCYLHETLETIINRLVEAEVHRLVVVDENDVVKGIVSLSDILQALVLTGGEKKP
Text: AMPK assays measured the transfer of radioactivity from labelled ATP to a peptide substrate, which was separated from unreacted ATP by binding to P81 paper. This assay was described previously, except that we used [γ-^33P]ATP rather than [γ-^32P]ATP. The peptide substrate was the AMARA peptide in all experiments other than one, which analyzed allosteric activation by AMP (Figure 2A), when, for technical reasons, the SAMS peptide was used instead. With purified preparations of AMPK, it was assayed in solution, but for assays in cell lysates (Figure 3D and Figure 4D), it was first immunoprecipitated using a mixture of anti-α1 and -α2 antibodies and assayed in resuspended immunoprecipitates. After the initial immunoprecipitation of lysate containing 80 µg of protein, the pellets were washed twice with 1 mL of high salt IP buffer (50 mM Tris-HCL, pH 7.4 at 4 °C, 1 M NaCl, 1 mM EDTA, 1 mM EGTA, 50 mM NaF, 5 mM Na pyrophosphate, 1 mM dithiothreitol, 0.1% (v/v) Triton X-100) and twice with 1 mL of low salt IP buffer (as above but only 150 mM NaCl), followed by a final wash in 1 mL of assay buffer (50 mM Na Hepes, pH7.4, 150 mM NaCl, 1 mM dithiothreitol, 0.02% (v/v) Brij-35). After each wash, the pellet was recovered via centrifugation (16,000× g, 3 min) and then resuspended. The final resuspended pellets from each biological replicate were divided into two aliquots (40 µg lysate protein) to provide technical replicates and assayed as above.

[2] = Pharmacokinetic study in mice, blood levels by LC:MS; format: in vivo, NOD-SCID mice; details: 10 mg/kg oral gavage after 1-aminobenzotriazole 50 mg/kg
Experimental: All experiments with live animals were approved in advance by the Ethical Review Committee of the University of Dundee in accordance with the UK Animal (Scientific Procedures) Act 1986. Two female mice of the NOD-SCID strain were obtained from Charles River Laboratories, UK. The animals were maintained under a 12 h light/12 h dark cycle. The animals were allowed ad libitum access to food (RM1; Special Diet Services, UK) and water. Temperature and relative humidity were maintained between 20 and 24 °C and 45 and 65%, respectively. All animals received a minimum of 14 days acclimatization prior to the start of the study. 1-Aminobenzotriazole was dissolved on the day of dosing in Milli-Q ultrapure water at a concentration of 10 mg/mL and dosed via oral gavage at a dose level of 50 mg/kg. BAY-3827 was suspended in 0.5% hydroxypropylmethylcellulose (Methocel K15M Premium USP/EP; Colorcon) in water, at a concentration of 2 mg/mL. The BAY-3827 formulation was dosed via oral gavage at a dose level of 10 mg/kg, 30 min after the administration of 1-aminobenzotriazole. The animals were observed regularly after dose administration. […]
A Waters Acquity Performance Liquid Chromatography coupled to a Waters Xevo TQ-S tandem mass spectrometer was used for the quantification of BAY-3827, using donepezil hydrochloride as an internal standard. […]
Calibration samples, QC samples, blanks, double blanks, and study samples were extracted through protein precipitation. […] The resultant supernatant from the calibration samples, QCs, double blanks, and blanks (200 µL) and study samples (80 µL) was then transferred to HPLC glass vials containing Milli-Q water (100 µL or 40 µL, respectively) to reduce the solvent strength ready for UHPLC/MS analysis.
The sample concentrations were determined via a linear regression (weighting: 1/x) on the calibration samples using Waters TargetLynx application (v4.2). […] The lower limit of quantification (LLoQ) was determined as the analyte response with ≥three times the analyte response of the blanks (plasma with internal standard but not analyte). […]

[3] = tested on: human AMPK (α2β1γ1 complex); details: low ATP concentration (10 µM); read-out: IC50, inhibition of human AMPK (α2β1γ1 complex); cited from earlier work
[4] = set-up: method as in ref 32 = [32]; 32. Lemos C. Schulze A. Overview for BAY-3827, an Inhibitor of PRKAA1, RPS6KA1 Available online: https://www.sgc-ffm.uni-frankfurt.de/chemProbes#!specificprobeoverview/BAY-3827 (accessed on 14 Novembe); details: rat hepatocytes; cited from earlier work
[5] = set-up: method as in ref 32 = [32]; 32. Lemos C. Schulze A. Overview for BAY-3827, an Inhibitor of PRKAA1, RPS6KA1 Available online: https://www.sgc-ffm.uni-frankfurt.de/chemProbes#!specificprobeoverview/BAY-3827 (accessed on 14 Novembe); details: mouse liver microsomes; cited from earlier work
[6] = tested on: RSK (RSK1-4, also known as RPS6KA1-4); details: selectivity screen against 331 kinases, 1 µM, 10 µM ATP; cited from earlier work

CCc1ccccc1C(=O)Nc1n[nH]c2c(C)c(F)c(C3C(C#N)=C(C)N(C)C(C)=C3C#N)cc12 [BAY-3827]
fold increase of EC50 for MK-8722 [1]: 7 fold | basal activity (without MK-8722) ([1]; control without inhibitor 11): 8.7 nmol/min/mg | blood concentration ([2]; after 4–8 h): 20 to 30 nM | peak blood concentration (mean) ([2]; at 60 min): 90 nM and ≈ 90 nM | concentration at 8 h ([2]; female, NOD-SCID, mouse, whole blood, after 8 h): 20 nM | IC50 [3]: 1.4 nM | in vitro clearance (CL) [4]: 3.3 L/h/kg | oral bio-availability (Fmax) [4]: 21% | in vitro clearance (CL) [5]: 5 L/h/kg | oral bio-availability (Fmax) [5]: 7% | inhibition of all four isoforms of RSK [6]: potently inhibit
